{"source": "patent US20220151993A1", "about": "“TREATMENT OF ANXIETY AND DEPRESSION” (NEW YORK UNIVERSITY, priority 2020, published 2022)", "key": {"[1]": {"system": "patients with cancer-related psychiatric and existential distress", "test": "Death Anxiety Scale (DAS), long-term follow-up", "format": "in vivo, human", "details": "single 0.3 mg/kg dose with psychotherapy, baseline 8.06", "experimental": "(§1) The present example assesses the long-term effects of a single dose of psilocybin (0.3 mg/kg) in conjunction with psychotherapy in patients with cancer-related psychiatric and existential distress.\n(§2) 29 participants were randomly assigned to one of two groups: psilocybin (0.3 mg/kg) on the first medication session followed by niacin (250 mg) on the second session (i.e. psilocybin-first group), or niacin (250 mg) on the first medication session followed by psilocybin (0.3 mg/kg) on the second session (i.e. niacin-first group). Psilocybin and niacin were administered in identically appearing gelatin capsules.\nParticipants received three 2-hour preparatory psychotherapy sessions in order to review the purpose and intention of participation in the study, treatment goals, and structure of the treatment sessions. Medications were administered in 8-hour treatment sessions which included a discussion of the participant's subjective experience with the treatment team to consolidate the memory of the experience and to begin the process of post-integrative psychotherapy. Participants also received three 2-hour post-medication integration sessions (repeated after the second dosing session) to further consolidate the memory of the experience and to continue the process of psychological integration. All psychotherapy treatment sessions were delivered by a dyadic therapy team trained in a blend of psychotherapies with an evidence base to support their use in cancer patients (drawing upon principles of palliative care therapy, existential psychotherapy, cognitive-behavioural therapy, psychoanalysis therapy, and transpersonal psychology) and were taught about the safety and clinical pharmacology of psilocybin. […]\n(§3) Cancer-related existential distress (demoralization, hopelessness, attitudes and effects associated with disease progression and death) was assessed using the following methods: • The Death Anxiety Scale (DAS) (Templer, 1970)—a 15-item measure that has been used most frequently to assess death anxiety. Items are scored “true” and “false” and then scored as one and zero, respectively. […]"}, "[2]": {"system": "patients with cancer-related psychiatric and existential distress", "test": "Hopelessness Assessment in Illness (HAI), long-term follow-up", "format": "in vivo, human", "details": "for Hopelessness: single 0.3 mg/kg dose with psychotherapy, baseline 5.75, p < 0.001 vs baseline", "experimental": "as §1, §2\n(§4) Participants received three 2-hour preparatory psychotherapy sessions in order to review the purpose and intention of participation in the study, treatment goals, and structure of the treatment sessions. Medications were administered in 8-hour treatment sessions which included a discussion of the participant's subjective experience with the treatment team to consolidate the memory of the experience and to begin the process of post-integrative psychotherapy. Participants also received three 2-hour post-medication integration sessions (repeated after the second dosing session) to further consolidate the memory of the experience and to continue the process of psychological integration. All psychotherapy treatment sessions were delivered by a dyadic therapy team trained in a blend of psychotherapies with an evidence base to support their use in cancer patients (drawing upon principles of palliative care therapy, existential psychotherapy, cognitive-behavioural therapy, psychoanalysis therapy, and transpersonal psychology) and were taught about the safety and clinical pharmacology of psilocybin. Each therapy dyad underwent six confidential one-to-one sessions to build their alliance and exchange ideas about psychedelic therapy. The trial employed a crossover design at seven weeks following the first drug administration, with an outcome assessment at 6.5 months (26 weeks) following the second drug administration (i.e. after the crossover).\nTwo long-term follow ups (LTFUs) were carried out to assess the continued effect of psilocybin. Of the original 29 participants, all 16 participants who were not deceased at the time of LTFU were contacted (the remaining 13 participants were deceased). […]\nas §3"}, "[3]": {"system": "patients with cancer-related psychiatric and existential distress", "test": "Existential distress measures (hopelessness, demoralization, death anxiety) combined: effect sizes", "format": "in vivo, human", "experimental": "as §1, §2, §4\n(§5) Two long-term follow ups (LTFUs) were carried out to assess the continued effect of psilocybin. Of the original 29 participants, all 16 participants who were not deceased at the time of LTFU were contacted (the remaining 13 participants were deceased). Of the 16 participants who were contacted, 15 agreed to participate in the LTFU and completed measures through a secure online portal. One participant died (from cancer-related complications) after completing the first LTFU and prior to the second LTFU, leaving us with 14 participants at the second LTFU. The first and second LTFUs occurred on average 3.2 years (range 2.3-4.5 years) and 4.5 years (range 3.5-5.5 years) following the participants' psilocybin dosing date, respectively.\nCancer-related existential distress (demoralization, hopelessness, attitudes and effects associated with disease progression and death) was assessed using the following methods: • The Death Anxiety Scale (DAS) (Templer, 1970)—a 15-item measure that has been used most frequently to assess death anxiety. Items are scored “true” and “false” and then scored as one and zero, respectively. Total scores range between 0-15. Higher scores represent increased severity of death anxiety. Scores below eight are considered normative levels of death anxiety. Templer (1970) reported adequate test-retest reliability (r=0.83) and validity. • The Hopelessness Assessment in Illness (HAI) (Rosenfeld et al., 2011)—an eight-item instrument developed for use in patients with advanced cancer. Total scores range from 0-16. Higher scores indicate higher levels of hopelessness. Data have not been published regarding recommended clinical cut-off scores for this measure. […]"}, "[4]": {"system": "patients with cancer-related psychiatric and existential distress", "test": "Secondary questionnaire domains (social relationships, environmental, physical, psychological health), long-term follow-up", "format": "in vivo, human", "details": "single 0.3 mg/kg dose with psychotherapy; for Psychological health: baseline 13.58; for Social relationships: baseline 13.91; for Physical health: baseline 15.00; for Environmental health: baseline 15.50", "experimental": "as §1, §2, §4, §5\nRegarding all analyses for both the primary and secondary outcome assessments, both the psilocybin-first and niacin-first dose sequence groups were collapsed and combined into one group. Reasons for this decision included the crossover design, which prevented valid between-group comparisons subsequent to the crossover, and a need to increase power given the modest sample size.\nThe long-terms effects of psilocybin on variables of interest were evaluated using four repeated measures regressions, estimated within the mixed effect repeated measurement (MMRM) model. Planned within-subject t-tests (Tukey's post-hoc) were conducted comparing scores at baseline to the following time points for primary and secondary outcomes: 6.5 months after the second medication session, and the first and second LTFU points. Planned within subject t-tests were also conducted comparing scores at parent study endpoint (6.5 months) to the two LTFU points."}, "[5]": {"system": "patients with life-threatening cancer", "details": "6-month follow up; cited from earlier work"}, "[6]": {"details": "mean score at 3.2 years, p < 0.01 vs baseline"}, "[7]": {"details": "mean score at 4.5 years, p < 0.05 vs baseline"}, "[8]": {"details": "mean score at 6.5-8 months, p < 0.05 vs baseline"}}, "data": [{"smiles": "CN(C)CCc1c[nH]c2cccc(OP(=O)(O)O)c12", "note": "[psilocybin, [3-(2-dimethylaminoethyl)-1H-indol-4-yl] dihydrogen phosphate]", "values": [{"measurement": "Death anxiety", "setting": "[1]; [6]", "result": 5.68}, {"measurement": "Death anxiety", "setting": "[1]; [7]", "result": 5.75}, {"measurement": "Death anxiety", "setting": "[1]; mean score at 6.5-8 months, p < 0.01 vs baseline", "result": 6.09}, {"measurement": "correlation (r) of length of time between psilocybin session and follow-up with HAI hopelessness change score", "setting": "[2]; Spearman, second LTFU subtracted from two-weeks post-psilocybin dose scores, p<0.01", "result": 0.69}, {"measurement": "Hopelessness", "setting": "[2]; mean score at 3.2 years", "result": 2.29}, {"measurement": "Hopelessness", "setting": "[2]; mean score at 4.5 years", "result": 1.65}, {"measurement": "Hopelessness", "setting": "[2]; mean score at 6.5-8 months", "result": 1.65}, {"measurement": "mean Cohen's d, reductions in hopelessness, demoralization and death anxiety since baseline", "setting": "[3]; 6.5-month point", "result": 1.39}, {"measurement": "range of Cohen's d, hopelessness, demoralization and death anxiety", "setting": "[3]; 6.5-month point", "result": "0.88-2.00"}, {"measurement": "mean Cohen's d, reductions in hopelessness, demoralization and death anxiety since baseline", "setting": "[3]; first LTFU (mean 3.2 years)", "result": 1.39}, {"measurement": "range of Cohen's d, hopelessness, demoralization and death anxiety", "setting": "[3]; first LTFU (mean 3.2 years)", "result": "0.80-1.77"}, {"measurement": "mean Cohen's d, reductions in hopelessness, demoralization and death anxiety since baseline", "setting": "[3]; second LTFU (mean 4.5 years)", "result": 1.60}, {"measurement": "range of Cohen's d, hopelessness, demoralization and death anxiety", "setting": "[3]; second LTFU (mean 4.5 years)", "result": "1.00-2.00"}, {"measurement": "Psychological health", "setting": "[4]; [6]", "result": 15.48}, {"measurement": "Social relationships", "setting": "[4]; mean score at 3.2 years", "result": 15.54}, {"measurement": "Physical health", "setting": "[4]; mean score at 3.2 years", "result": 16.33}, {"measurement": "Environmental health", "setting": "[4]; mean score at 3.2 years, p < 0.05 vs baseline", "result": 16.72}, {"measurement": "Psychological health", "setting": "[4]; mean score at 4.5 years", "result": 14.80}, {"measurement": "Social relationships", "setting": "[4]; mean score at 4.5 years", "result": 14.67}, {"measurement": "Physical health", "setting": "[4]; mean score at 4.5 years", "result": 13.89}, {"measurement": "Environmental health", "setting": "[4]; [7]", "result": 17.00}, {"measurement": "Psychological health", "setting": "[4]; mean score at 6.5-8 months, p < 0.001 vs baseline", "result": 15.70}, {"measurement": "Social relationships", "setting": "[4]; mean score at 6.5-8 months", "result": 15.27}, {"measurement": "Physical health", "setting": "[4]; [8]", "result": 16.35}, {"measurement": "Environmental health", "setting": "[4]; [8]", "result": 16.54}, {"measurement": "participants continuing to show decreases in depressed mood and anxiety", "setting": "[5]", "result": "about 80%"}]}]}
